Entries after “also recorded” stand apart in the source; their conditions may differ.
Columns and labels:
[1] = tested on: CO2 sensitive A neuron of peg sensillum; test: activation of CO2 sensitive neuron with a volatile odorant; format: cell-based, Culex quinquefasciatus; conditions: indicated concentrations
Experimental: (§1) FIG. 2 depicts electrophysiology measurements of the peg sensillum on the mosquito maxillary palp. The palp, indicated in brown in the schematic of the mosquito head, has several peg sensilla. Each peg sensilla (grey club-like structure in the center) contains three olfactory neurons A, B and C as indicated, of which the ‘A’ neuron gives a robust and specific increase in frequency of action potentials in response to a stimulus of CO2. Extracellular single-unit recordings are performed by inserting a glass microelectrode into the peg sensilla, and puffing an odor such as CO2 towards the mosquito maxillary palps. The signal is amplified to obtain the trace of action potentials.
(a) Action potential traces from the peg sensillum of the maxillary palp show spike amplitudes from three neurons, where the spikes with the largest amplitude belongs to the CO2 sensitive A neuron. (b) 1 sec of the indicated dilution 2,3-butanedione is puffed to Aedes aegypti. (c) 1 sec of indicated odor is puffed to Anopheles gambiae. (d) butanone and (e) 2,3-butanedione are given to Culex quinquefasciatus at the indicated concentrations. PO=paraffin oil. n=5. Baseline activity subtracted. Error bars indicate SEM.

[2] = tested on: CO2-sensitive ab1C neurons; test: single-sensillum electrophysiology, inhibition of CO2 response of ab1C neurons; format: cell-based, Drosophila; conditions: odourant 10^-2; 3-sec 0.3% CO2 with 1-sec odourant
Source text: Representative traces (top) and mean responses (bottom) from single-sensillum electrophysiology of ab1 sensilla in mutant flies; spikes represent activity of the ab1C neuron. a, 3-sec stimulus of odourant overlaid with a 1-sec application of 0.3% CO2. b, 3-sec stimulus of 0.3% CO2 overlaid with a 1-sec application of odourant. PO=paraffin oil, d4on=2,3-butanedione, 6ol=1-hexanol. n=6, error bars=s.e.m. Spikes per second were counted during the 1-sec stimulus period, and spontaneous activity subtracted. (For data in a and b, T-test, *P<0.001, **P<0.005, ***P<0.01, ****P<0.05) c, ab1C responses to indicated concentrations of CO2 in the presence of solvent (PO), 1-hexanol (6ol) or 2,3-butanedione (d4on). Odourants were tested at 10^−1 dilution. Firing rates were counted in consecutive 0.1-sec bins. n=3, error bars=s.e.m.
Bars indicate stimulus periods for 0.3% CO2, and overlays with 1-hexanol (6ol) or 2,3-butanedione (d4on) at the indicated concentrations. b, Recovery of ab1C responsiveness to a 0.5-sec, 0.3% CO2 stimulus applied every 30-sec after initial treatment with 3-sec stimulus of either d4on (10^−1) or paraffin oil (PO). n=5, error bars=s.e.m., (T-test, *P<0.005, **<0.01, ***P<0.05). c, CO2 response inhibition by structurally related compounds. A 3-sec stimulus of 0.3% CO2 was delivered in combination with 1-sec application of indicated odourant (10^−2) as in a. Percent increase or decrease in mean ab1C response was calculated relative to mean response of paraffin oil. n=5. d, Structures of CO2 and the 4 strongest antagonists. e-f, show mean odourant responses. e, Odourants were tested on ab1C neurons in Or83b2 flies at 10^−2 dilution in paraffin oil. Bars represent values after subtraction of mean response to paraffin oil. n=3. f, Odourants at indicated concentrations were tested on ab3A neuron in wild-type (wt) and ΔHalo (AH) mutants that lack Or22a and Or22b. Bars represent values after subtraction of spontaneous activity. n=5, error bars=s.e.m.
FIG. 16 is a schematic diagram of an odour-delivery system to maintain steady concentration of CO2 in binary mixture experiments. Cartridges were made from Pasteur pipettes with pre-filled cotton wool inserts. […] odorant dissolved in paraffin oil (at specific concentrations) was applied to the cotton wool, and a 1.5 ml disposable tip attached to the open end to make the “odour cartridge”. A controlled “humidified air flow” was generated from a compressed air cylinder by bubbling through water, and passed through a glass tube, and released over the recording arena holding the Drosophila. A C-55 stimulus controller (Syntech) was used to generate an additional activated-charcoal filtered continuous air flow of 5 ml/sec which was delivered into the humidified airstream through a “blank cartridge” with the tip placed through a hole in the tube. To generate controlled odourant stimulus the C-55 stimulus controller was used to switch air flow from the “continuous air flow” to “odor stimulus flow” channel. An additional CO2 stimulus was pulsed through a separate system that delivered controlled pulses (variable 2.5 ml/sec-6.5 ml/sec) into the same humidified airstream, from either a 1%, 5% or 100% cylinder of CO2 (Airgas).
Extracellular single-unit recordings were performed. Odourant stimuli were delivered via Pasteur pipette odour cartridges (see, FIG. 16). Chemicals were of the highest purity available, typically>99% (Sigma-Aldrich). All odourants were diluted in paraffin oil. A controlled volume of air 5 ml/sec was puffed through the odour cartridge containing vapours, and was delivered into a constant humidified airstream of 10 ml/sec that was passed over the fly antenna. […] CO2 stimulus was pulsed through a separate delivery system that delivered controlled pulses (variable 2.5 ml/sec-6.5 ml/sec) into the same humidified airstream, from either a 1%, 5% or 100% tank of CO2 (Airgas). […]

[3] = tested on: CO2 sensitive neuron (A neuron) of peg sensillum; test: single-sensillum electrophysiology of maxillary palp peg sensillum, inhibition of CO2 response; format: cell-based, Culex quinquefasciatus; conditions: 3-sec pre-exposure, 10^-1; 0.25% CO2 impulse every 30-sec over 6-min
Experimental: as §1
(§2) Action potential traces from the peg sensillum of the maxillary palp show spike amplitudes from three neurons, where the highest spike (from neuron A) indicates the CO2 response. A 3-sec stimulus of 0.3% CO2 (indicated by longer black bar), is overlaid with a 0.5-sec stimulus of candidate odors. […]
The recovery of the response to a 0.25% impulse (top) or 0.3% impulse (bottom) of CO2 was measured every 30-sec over a 6-min time period, after an initial 3-sec pre-exposure with (A) butanal (10^−1) (top), or (B) an ‘odor mixture’ consisting of 1-hexanol, pentanal, butanal, and 2,3-butanedione at 10^−2 concentration (bottom). […]

[4] = tested on: CO2 sensitive neuron (A neuron) of peg sensillum; test: as above; format: cell-based, Aedes aegypti; conditions: 3-sec pre-exposure, 10^-1; 0.3% CO2 impulse every 30-sec over 6-min
Experimental: as §1
as §2, with “bar),” for “bar), is”, “1-sec” for “0.5-sec”, “odor. CO2 and odor stimuli are applied in the same manner as discussed above.” for “candidate odors.”
The recovery of the response to a 0.3% impulse of CO2 was measured every 30-sec over a 6-min time period, after an initial 3-sec pre-exposure with (A) butanal (10^−1), or (B) an ‘odor mixture’ consisting of 1-hexanol, pentanal, butanal, and 2,3-butanedione at 10^−2 concentration. […]

CCC(C)=O [butanone]
activation of CO2 sensitive neuron [1]: activation; also recorded: activator

CCCC=O [butanal]
CO2 response inhibition by structurally related odourants [2]: effective inhibitors
CO2 response after pre-exposure [3]: long term reduction in CO2 response
CO2 response after pre-exposure [4]: long term reduction in CO2 response

CCCCC=O [pentanal]
CO2 response inhibition by structurally related odourants [2]: effective inhibitors
